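Cultured in 96-well plates, cells were exposed to test compound for 48 hours across five concentrations. TGI is the concentration that stops growth completely.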
What was measured:
Experiment in all cases: NCI tumour cell line growth inhibition, 48 h
HT29 colon = system: HT29 colon
NCI-H460 lung = system: NCI-H460 lung
HCT-15 colon = system: HCT-15 colon
TK-10 renal = system: TK-10 renal
MDA-N = system: MDA-N
K-562 leukemia = system: K-562 leukemia
IGROV1 ovarian = system: IGROV1 ovarian
CAKI-1 renal = system: CAKI-1 renal
HCT-116 colon = system: HCT-116 colon
MOLT-4 leukemia = system: MOLT-4 leukemia
SNB-75 CNS = system: SNB-75 CNS
SR leukemia = system: SR leukemia
OVCAR-4 ovarian = system: OVCAR-4 ovarian
MDA-MB-231 breast = system: MDA-MB-231 breast
UACC-257 melanoma = system: UACC-257 melanoma
HL-60(TB) leukemia = system: HL-60(TB) leukemia
SF-268 CNS = system: SF-268 CNS
RPMI-8226 leukemia = system: RPMI-8226 leukemia
SW-620 colon = system: SW-620 colon
MDA-MB-435 = system: MDA-MB-435
T-47D breast = system: T-47D breast
COLO 205 colon = system: COLO 205 colon
SF-539 CNS = system: SF-539 CNS
SNB-19 CNS = system: SNB-19 CNS
NCI-H522 lung = system: NCI-H522 lung
A549 NSCLC = system: A549 NSCLC
NCI/ADR-RES ovarian = system: NCI/ADR-RES ovarian
HS 578T breast = system: HS 578T breast
SK-OV-3 ovarian = system: SK-OV-3 ovarian
SK-MEL-28 melanoma = system: SK-MEL-28 melanoma
SK-MEL-5 melanoma = system: SK-MEL-5 melanoma
A498 renal = system: A498 renal
ACHN renal = system: ACHN renal
HOP-92 NSCLC = system: HOP-92 NSCLC
HOP-62 NSCLC = system: HOP-62 NSCLC
LOX IMVI melanoma = system: LOX IMVI melanoma
UO-31 renal = system: UO-31 renal
OVCAR-3 ovarian = system: OVCAR-3 ovarian
MALME-3M melanoma = system: MALME-3M melanoma
NCI-H226 lung = system: NCI-H226 lung
PC-3 prostate = system: PC-3 prostate
MCF7 breast = system: MCF7 breast
HCC-2998 colon = system: HCC-2998 colon
OVCAR-8 ovarian = system: OVCAR-8 ovarian
SK-MEL-2 melanoma = system: SK-MEL-2 melanoma
786-0 renal = system: 786-0 renal
BT-549 breast = system: BT-549 breast
M14 melanoma = system: M14 melanoma
SF-295 CNS = system: SF-295 CNS
U251 CNS = system: U251 CNS
OVCAR-5 ovarian = system: OVCAR-5 ovarian
EKVX NSCLC = system: EKVX NSCLC
NCI-H23 lung = system: NCI-H23 lung
SN12C renal = system: SN12C renal
DU-145 prostate = system: DU-145 prostate
RXF 393 renal = system: RXF 393 renal
CCRF-CEM leukemia = system: CCRF-CEM leukemia
UACC-62 melanoma = system: UACC-62 melanoma
KM12 colon = system: KM12 colon

Measured: TGI

COC(=O)/C(C#N)=C(\Nc1ccccc1)N1CCCC1
not listed: CCRF-CEM leukemia | UACC-62 melanoma | KM12 colon
> 100 µM: all other assays above

CC1=CN(c2ccccc2)S2=C1c1sc3c(c1N2c1ccc(Br)cc1)CCCC3 (configuration not stated)
not listed: SNB-75 CNS | MALME-3M melanoma
> 100 µM: all other assays above

CN(C)c1ccc(/C=C/c2nc3ccccc3s2)cc1
not listed: CAKI-1 renal | SNB-75 CNS | OVCAR-3 ovarian | UACC-62 melanoma
> 100 µM: all other assays above

Oc1ccc(-c2nn3c(CCCCCCCCc4nnc5sc(-c6ccc(O)cc6)nn45)nnc3s2)cc1
not listed: IGROV1 ovarian | HL-60(TB) leukemia
> 100 µM: all other assays above

O=C(O)C1[C@@H](C(=O)O)C1(Br)CBr (some centres not stated)
not listed: MALME-3M melanoma | CCRF-CEM leukemia
> 100 µM: all other assays above

From PubChem BioAssay (NCI)
